What was measured:
[1] = Tissue distribution in rodents; assay type: in vivo
Excerpt: Infiltration of various immune cell populations, resulting in inflammation, is a central pathogenic feature following acute- and chronic liver injury. Chronic liver inflammation leads to continuous hepatocyte injury which can lead to fibrosis, cirrhosis, ESLD, and HCC. Interactions between intra-hepatic immune cells lead to increased activation and migration of Kupffer cells and HSCs and are critical events for developing liver fibrosis. Additionally, there is increasing evidence of the role of CCR2 and CCR5 in the pathogenesis of liver fibrosis. These members of the C-C chemokine family are expressed by pro-fibrogenic cells including pro-inflammatory monocytes and macrophages, Kupffer cells, and HSCs. CCR2 signaling plays an important role in the pathogenesis of renal fibrosis through regulation of bone marrow-derived fibroblasts. CCR2- and CCR5-positive monocytes as well as CCR5-positive T lymphocytes are attracted by locally released MCP-1 and RANTES, and can contribute to chronic interstitial inflammation in the kidney. […] Disruption of the intestinal microbiota and its downstream effects on the gut-liver axis both play an important role in metabolic disorders such as obesity, non-alcoholic fatty liver disease (NAFLD) and non-alcoholic steatohepatitis (NASH).

[2] = tested on: mouse UUO model of renal fibrosis; assay: Mouse unilateral ureter occlusion (UUO) model of renal fibrosis; assay type: in vivo, CD-1 mice; conditions: for Reduction of UUO-induced increase in composite Collagen Volume Fraction (CVF): ±SEM
Procedure: Test animals were allocated to weight-matched treatment groups on the day prior to the surgical procedure (Day −1). Male CD-1 mice (N=51; age, 7-8 weeks) underwent either sham surgery or total ligation of the right ureter, i.e. UUO, via aseptic laparotomy (FIG. 5). […] Another group received the anti-transforming growth factor TGF-β1 antibody, compound 1D11 (positive control) at 3 mg/kg/day from Days −1 to 4, injected intraperitoneally once daily, and vehicle control from Days 0 to 5. […] On Day 5, animals were anaesthetised, blood and tissues were collected prior to sacrifice.
Study endpoints included: a) body and kidney weights; b) fibrosis in obstructed kidney evaluated via histological quantitative image analysis of picrosirius red staining (ten images/depth/kidney obtained and assessed in a blinded fashion using light microscopy [at 200×] to enable sampling of 60-70% of the renal cortical area) and quantified by a composite Collagen Volume Fraction (CVF [% total area imaged]) score expressed as the average positive stain across three anatomically distinct (200-250 μM apart) tissue sections, or depths, from the obstructed kidney; c) hydroxyproline content of frozen renal cortical tissue biopsies as assessed by biochemical analyses; d) mRNA expression of profibrotic and inflammatory biomarkers (including MCP-1, Collagen 1a1, Collagen 3α1, TGF-β31, Fibronectin-1, α-smooth muscle actin (α-SMA) and connective tissue growth factor-1 (CTGF-1); assessed via Luminex® (Life Technologies™, Carlsbad, Calif., USA) assay with relative expression normalised to HPRT (hypoxanthine phosphoribosyltransferase).
Data are expressed as mean±standard error of mean (SEM). Statistical analyses were performed using GraphPad Prism® (GraphPad Software, Inc., San Diego, Calif., USA). Treatment differences between sham-surgery+vehiclecontrol and UUO+vehicle-control groups, and between UUO+vehicle-control and UUO+compound-1D11 (positive control) groups, were analysed by unpaired t-Test. Treatment differences between UUO+vehicle-control and CVC-dose groups were analysed by one-way ANOVA (analysis of variance) with Dunnett's test (post-hoc).

[3] = tested on: HIV-1 infected adult subjects; assay: Study 202 biomarkers of inflammation; assay type: in vivo, human
Procedure: As an exploratory analysis, levels of inflammation biomarkers MCP-1, sCD14, high sensitivity C-reactive protein [hs-CRP], interleukin-6 [IL-6], D-dimer, and fibrinogen) were measured. Baseline values and changes from baseline at Week 24 and Week 48 of MCP-1, sCD14, hs-CRP, IL-6, D-dimer, and fibrinogen are summarized in Table 22.
The sCD14 samples were originally analyzed in 2 separate batches: Batch 1 included samples leading up to the Week 24 primary analysis and Batch 2 included Week 32 and Week 48 (end of study) samples. A repeat analysis of archived samples all analyzed in one batch was conducted for consistency in analysis across time points. To control for the effects of covariates, a linear mixed-model repeated-measures analysis was conducted on the changes from baseline in sCD14 (analysis dated September 2013).

CCR2 = CCR2 (Homo sapiens, UniProt P41597); assay: CCR2 antagonism in in vitro, ex vivo and clinical studies; conditions: Studies 652-2-201 and 652-2-202
Excerpt: Clinical evidence of CCR2 and CCR5 antagonism was established by measuring changes from baseline in plasma MCP-1 (a ligand of CCR2) concentrations and changes in plasma HIV-RNA (CCR5 co-receptor required for HIV entry), respectively, in these 2 Phase 2 Studies.

[4] = CVC 7 and 20 mg/kg/day, compound 1D11 3 mg/kg/day, versus UUO+vehicle-control

CCR2, sequence (P41597 whole entry): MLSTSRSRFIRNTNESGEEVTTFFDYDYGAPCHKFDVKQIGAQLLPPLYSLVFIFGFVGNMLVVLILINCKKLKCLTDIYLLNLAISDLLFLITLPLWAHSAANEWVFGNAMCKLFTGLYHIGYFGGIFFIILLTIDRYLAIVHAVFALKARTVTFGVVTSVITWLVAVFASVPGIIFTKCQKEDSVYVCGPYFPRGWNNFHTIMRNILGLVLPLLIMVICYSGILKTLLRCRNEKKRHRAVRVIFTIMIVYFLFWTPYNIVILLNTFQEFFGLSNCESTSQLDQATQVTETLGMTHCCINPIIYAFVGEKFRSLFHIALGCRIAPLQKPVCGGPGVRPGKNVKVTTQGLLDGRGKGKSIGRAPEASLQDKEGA

CCCCOCCOc1ccc(-c2ccc3c(c2)C=C(C(=O)Nc2ccc([S@@+]([O-])Cc4cncn4CCC)cc2)CCCN3CC(C)C)cc1 [CVC, (S)-8-[4-(2-Butoxyethoxy)phenyl]-1-isobutyl-N-(4-{[(1-propyl-1H-imidazol-5-yl)methyl]sulfinyl}phenyl)-1,2,3,4-tetrahydro-1-benzazocine-5-carboxamide]
Tissue distribution [1]: high distribution in the liver, mesenteric lymph node, and intestine
Reduction of UUO-induced increase in composite Collagen Volume Fraction (CVF) ([2]; CVC 7 mg/kg/day oral, Day 5): 28.6±8.8%
Reduction of UUO-induced increase in composite Collagen Volume Fraction (CVF) ([2]; CVC 20 mg/kg/day oral, Day 5, one outlier excluded): 31.8±6.8%
Tolerability after UUO surgery ([2]; CVC 100 mg/kg/day group (N=9)): terminated early due to moribundity
Effect on obstructed kidney hydroxyproline content ([2]; CVC 7 and 20 mg/kg/day, Day 5): Neither dose of CVC tested affected UUO-induced increases in obstructed kidney hydroxyproline content
Collagen 1a1, Collagen 3α1, TGF-β1 and Fibronectin-1 mRNA expression in obstructed kidney [2, 4]: these reductions, compared with the UUO+vehicle-control group, did not reach statistical significance
Obstructed kidney cortical MCP-1, α-SMA and CTGF-1 mRNA expression [2, 4]: did not have significant effects
Effect on body weight relative to UUO+vehicle-control ([2]; Day 5, CVC 7 mg/kg/day oral, compound 1D11 3 mg/kg/day i.p.): no effect on body weight
Decrease in body weight relative to UUO+vehicle-control ([2]; Day 5, CVC 20 mg/kg/day oral): 5%
Obstructed or contralateral kidney weight or kidney weight index versus UUO+vehicle-control ([2]; Day 5, CVC 7 and 20 mg/kg/day, compound 1D11 3 mg/kg/day): No significant treatment effects
sCD14 (original values) change from baseline, mean ([3]; CVC 100 mg, Week 12): -140000 pg/mL
sCD14 (original values) change from baseline, median ([3]; CVC 100 mg, Week 12): -160000 pg/mL
D-dimer change from baseline, mean ([3]; CVC 100 mg, Week 24): -32 ng/mL
D-dimer change from baseline, median ([3]; CVC 100 mg, Week 24): -1.0 ng/mL
Fibrinogen change from baseline, mean ([3]; CVC 100 mg, Week 24): -3 mg/dL
Fibrinogen change from baseline, median ([3]; CVC 100 mg, Week 24): -14 mg/dL
IL-6 change from baseline, mean ([3]; CVC 100 mg, Week 24): 0.42 pg/mL
IL-6 change from baseline, median ([3]; CVC 100 mg, Week 24): 0.00 pg/mL
MCP-1 change from baseline, mean ([3]; CVC 100 mg, Week 24): 493 pg/mL
MCP-1 change from baseline, median ([3]; CVC 100 mg, Week 24): 429 pg/mL
hs-CRP change from baseline, mean ([3]; CVC 100 mg, Week 24): -0.16 mg/dL
hs-CRP change from baseline, median ([3]; CVC 100 mg, Week 24): -0.03 mg/dL
sCD14 (original values) change from baseline, mean ([3]; CVC 100 mg, Week 24): -190000 pg/mL
sCD14 (original values) change from baseline, median ([3]; CVC 100 mg, Week 24): -180000 pg/mL
sCD14 (original values) change from baseline, mean ([3]; CVC 100 mg, Week 32): 110000 pg/mL
sCD14 (original values) change from baseline, median ([3]; CVC 100 mg, Week 32): 120000 pg/mL
D-dimer change from baseline, mean ([3]; CVC 100 mg, Week 48): -41 ng/mL
D-dimer change from baseline, median ([3]; CVC 100 mg, Week 48): -1.0 ng/mL
Fibrinogen change from baseline, mean ([3]; CVC 100 mg, Week 48): 11 mg/dL
Fibrinogen change from baseline, median ([3]; CVC 100 mg, Week 48): 15 mg/dL
IL-6 change from baseline, mean ([3]; CVC 100 mg, Week 48): 0.29 pg/mL
IL-6 change from baseline, median ([3]; CVC 100 mg, Week 48): 0.00 pg/mL
MCP-1 change from baseline, mean ([3]; CVC 100 mg, Week 48): 636 pg/mL
MCP-1 change from baseline, median ([3]; CVC 100 mg, Week 48): 523 pg/mL
hs-CRP change from baseline, mean ([3]; CVC 100 mg, Week 48): -0.08 mg/dL
hs-CRP change from baseline, median ([3]; CVC 100 mg, Week 48): -0.01 mg/dL
sCD14 (original values) change from baseline, mean ([3]; CVC 100 mg, Week 48): 100000 pg/mL
sCD14 (original values) change from baseline, median ([3]; CVC 100 mg, Week 48): 100000 pg/mL
sCD14 (original values) change from baseline, mean ([3]; CVC 200 mg, Week 12): -230000 pg/mL
sCD14 (original values) change from baseline, median ([3]; CVC 200 mg, Week 12): -210000 pg/mL
D-dimer change from baseline, mean ([3]; CVC 200 mg, Week 24): -64 ng/mL
D-dimer change from baseline, median ([3]; CVC 200 mg, Week 24): -50 ng/mL
Fibrinogen change from baseline, mean ([3]; CVC 200 mg, Week 24): -7 mg/dL
Fibrinogen change from baseline, median ([3]; CVC 200 mg, Week 24): -8 mg/dL
IL-6 change from baseline, mean ([3]; CVC 200 mg, Week 24): 0.81 pg/mL
IL-6 change from baseline, median ([3]; CVC 200 mg, Week 24): 0.00 pg/mL
MCP-1 change from baseline, mean ([3]; CVC 200 mg, Week 24): 753 pg/mL
MCP-1 change from baseline, median ([3]; CVC 200 mg, Week 24): 695 pg/mL
hs-CRP change from baseline, mean ([3]; CVC 200 mg, Week 24): -0.04 mg/dL
hs-CRP change from baseline, median ([3]; CVC 200 mg, Week 24): -0.04 mg/dL
sCD14 (original values) change from baseline, mean ([3]; CVC 200 mg, Week 24): -230000 pg/mL
sCD14 (original values) change from baseline, median ([3]; CVC 200 mg, Week 24): -190000 pg/mL
sCD14 (original values) change from baseline, mean ([3]; CVC 200 mg, Week 32): 20000 pg/mL
sCD14 (original values) change from baseline, median ([3]; CVC 200 mg, Week 32): -20000 pg/mL
D-dimer change from baseline, mean ([3]; CVC 200 mg, Week 48): -70 ng/mL
D-dimer change from baseline, median ([3]; CVC 200 mg, Week 48): -50 ng/mL
Fibrinogen change from baseline, mean ([3]; CVC 200 mg, Week 48): -10 mg/dL
Fibrinogen change from baseline, median ([3]; CVC 200 mg, Week 48): -13 mg/dL
IL-6 change from baseline, mean ([3]; CVC 200 mg, Week 48): -0.04 pg/mL
IL-6 change from baseline, median ([3]; CVC 200 mg, Week 48): 0.00 pg/mL
MCP-1 change from baseline, mean ([3]; CVC 200 mg, Week 48): 900 pg/mL
MCP-1 change from baseline, median ([3]; CVC 200 mg, Week 48): 756 pg/mL
hs-CRP change from baseline, mean ([3]; CVC 200 mg, Week 48): -0.18 mg/dL
hs-CRP change from baseline, median ([3]; CVC 200 mg, Week 48): -0.04 mg/dL
sCD14 (original values) change from baseline, mean ([3]; CVC 200 mg, Week 48): -40000 pg/mL
sCD14 (original values) change from baseline, median ([3]; CVC 200 mg, Week 48): -40000 pg/mL
Antagonism of CCR2 (CCR2): potent and concentration-dependent antagonism

From patent US20200268768A1, “CENICRIVIROC COMBINATION THERAPY FOR THE TREATMENT OF FIBROSIS” (Tobira Therapeutics, Inc., priority 2015, published 2020)
